Article PMC6370745, “Positive Regulation of Spoilage Potential and Biofilm Formation in Shewanella baltica OS155 via Quorum Sensing System Composed of DKP and Orphan LuxRs” (Frontiers in Microbiology, 2019)

Molecular target: T1, LuxR01 (Shewanella baltica, UniProt A3CYS4)
T1 construct: gene Sbal_0102
T1 sequence (A3CYS4 1-175): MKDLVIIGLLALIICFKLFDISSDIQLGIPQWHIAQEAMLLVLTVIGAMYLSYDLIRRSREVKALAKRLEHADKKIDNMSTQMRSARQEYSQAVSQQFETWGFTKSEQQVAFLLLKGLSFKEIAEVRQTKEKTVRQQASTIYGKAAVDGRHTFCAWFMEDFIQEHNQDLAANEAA
Experiment: FLAG bead pull-down from ligand mixture, UHPLC-MS/MS
Assay type: binding
Conditions: mixture of C4-HSL, C6-HSL, PL, LL and PP, 1 uM, PBS, 4 °C, 1 h; empty-vector control

O=C1N[C@@H](Cc2ccccc2)C(=O)N2CCC[C@@H]12 [PP, cyclo-(L-Pro-L-Phe)]
FLAG bead pull-down from ligand mixture, UHPLC-MS/MS: PP was detected in LuxR01 and LuxR02 protein binding system
